System: K12877-001-R-J1-PDC complex spheroid viability
Experiment: Anticancer human tumor K12877-001-R-J1-PDC patient-derived lung adenocarcinoma cell line growth inhibition [RAS]
Conditions: for IC50: curve of first compound; for viability, T/C: stronger effect = lower value
Method in brief: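 Agents were tested in combination matrices in half-log decrements from a top concentration at or near clinical Cmax (10 microM if undetermined). Targets were multi-cell spheroids of tumour lines plus HUVEC and MSC stromal cells.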
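Also: spheroids exposed to agents for one week before readout.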
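For viability, T/C in this document: tumour cells co-cultured with HUVEC and mesenchymal stem cells in spheroids.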

`CCc1c2c(nc3ccc(O)cc13)-c1cc3c(c(=O)n1C2)COC(=O)[C@]3(O)CC` + CCn1c(-c2cc(N3CCN(C)CC3)cnc2C(C)OC)c2c3cc(ccc31)-c1csc(n1)CC(NC(=O)C1CC1C)C(=O)N1CCCC(N1)C(=O)OCC(C)(C)C2 gave an IC50 (second compound 0.000949 µM) of 4.82 nM, an IC50 (second compound 0.003 µM) of 4.39 nM and an IC50 (second compound 0.00949 µM) of 3.87 nM. It also gave an IC50 (second compound 0.03 µM) of 4.32 nM, an IC50 (second compound 0.0949 µM) of 3.81 nM and an IC50 (second compound 0.3 µM) of 2.73 nM. For the same compound, the viability, T/C (second compound 0.000949 µM, first compound 0.000949 µM) was 78.3%, the viability, T/C (second compound 0.000949 µM, first compound 0.003 µM) was 72.4% and the viability, T/C (second compound 0.000949 µM, first compound 0.00949 µM) was 18.2%. For the same compound, the viability, T/C (second compound 0.000949 µM, first compound 0.03 µM) was 7.02%, the viability, T/C (second compound 0.000949 µM, first compound 0.0949 µM) was 3.48% and the viability, T/C (second compound 0.000949 µM, first compound 0.3 µM) was 2.43%. For the same compound, the viability, T/C (second compound 0.003 µM, first compound 0.000949 µM) was 67.2%, the viability, T/C (second compound 0.003 µM, first compound 0.003 µM) was 68.8% and the viability, T/C (second compound 0.003 µM, first compound 0.00949 µM) was 13.6%. The viability, T/C (second compound 0.003 µM, first compound 0.03 µM) was 6.6%, the viability, T/C (second compound 0.003 µM, first compound 0.0949 µM) was 4.13% and the viability, T/C (second compound 0.003 µM, first compound 0.3 µM) was 2.12%. It also gave a viability, T/C (second compound 0.00949 µM, first compound 0.000949 µM) of 71.6%, a viability, T/C (second compound 0.00949 µM, first compound 0.003 µM) of 59.8% and a viability, T/C (second compound 0.00949 µM, first compound 0.00949 µM) of 15.8%. For the same compound, the viability, T/C (second compound 0.00949 µM, first compound 0.03 µM) was 6.3%, the viability, T/C (second compound 0.00949 µM, first compound 0.0949 µM) was 3.36% and the viability, T/C (second compound 0.00949 µM, first compound 0.3 µM) was 1.64%. The viability, T/C (second compound 0.03 µM, first compound 0.000949 µM) was 84.9%, the viability, T/C (second compound 0.03 µM, first compound 0.003 µM) was 67.8% and the viability, T/C (second compound 0.03 µM, first compound 0.00949 µM) was 11.5%. The viability, T/C (second compound 0.03 µM, first compound 0.03 µM) was 6.66%, the viability, T/C (second compound 0.03 µM, first compound 0.0949 µM) was 2.86% and the viability, T/C (second compound 0.03 µM, first compound 0.3 µM) was 1.43%. It also gave a viability, T/C (second compound 0.0949 µM, first compound 0.000949 µM) of 94.8%, a viability, T/C (second compound 0.0949 µM, first compound 0.003 µM) of 59.5% and a viability, T/C (second compound 0.0949 µM, first compound 0.00949 µM) of 13.8%. The viability, T/C (second compound 0.0949 µM, first compound 0.03 µM) was 5.27%, the viability, T/C (second compound 0.0949 µM, first compound 0.0949 µM) was 3.05% and the viability, T/C (second compound 0.0949 µM, first compound 0.3 µM) was 1.38%. It also gave a viability, T/C (second compound 0.3 µM, first compound 0.000949 µM) of 85.1%, a viability, T/C (second compound 0.3 µM, first compound 0.003 µM) of 46.9% and a viability, T/C (second compound 0.3 µM, first compound 0.00949 µM) of 9.52%. The viability, T/C (second compound 0.3 µM, first compound 0.03 µM) was 4.79%, the viability, T/C (second compound 0.3 µM, first compound 0.0949 µM) was 3.58% and the viability, T/C (second compound 0.3 µM, first compound 0.3 µM) was 1.11%.
With `C=CC(=O)Nc1cc(Nc2nccc(-c3cn(C)c4ccccc34)n2)c(OC)cc1N(C)CCN(C)C` + CCn1c(-c2cccnc2C(C)OC)c2c3cc(ccc31)N1CCOC(CC(NC(=O)C(C(C)C)N(C)C(=O)C3(F)CCN(C(=O)C#CC(C)(C)N(C)C)CC3)C(=O)N3CCCC(N3)C(=O)OCC(C)(C)C2)C1 the IC50 (second compound 0.000949 µM) was over 1000 nM, the IC50 (second compound 0.003 µM) was over 1000 nM and the IC50 (second compound 0.00949 µM) was over 1000 nM. For the same compound, the IC50 (second compound 0.03 µM) was over 1000 nM, the IC50 (second compound 0.0949 µM) was over 1000 nM and the IC50 (second compound 0.3 µM) was over 1000 nM. The viability, T/C (second compound 0.000949 µM, first compound 0.00316 µM) was 90.4%, the viability, T/C (second compound 0.000949 µM, first compound 0.01 µM) was 75.9% and the viability, T/C (second compound 0.000949 µM, first compound 0.0316 µM) was 85.4%. For the same compound, the viability, T/C (second compound 0.000949 µM, first compound 0.1 µM) was 78.5%, the viability, T/C (second compound 0.000949 µM, first compound 0.316 µM) was 78% and the viability, T/C (second compound 0.000949 µM, first compound 1 µM) was 69.8%. It also gave a viability, T/C (second compound 0.003 µM, first compound 0.00316 µM) of 78.2%, a viability, T/C (second compound 0.003 µM, first compound 0.01 µM) of 75.2% and a viability, T/C (second compound 0.003 µM, first compound 0.0316 µM) of 69.3%. For the same compound, the viability, T/C (second compound 0.003 µM, first compound 0.1 µM) was 70.5%, the viability, T/C (second compound 0.003 µM, first compound 0.316 µM) was 74.3% and the viability, T/C (second compound 0.003 µM, first compound 1 µM) was 70.3%. For the same compound, the viability, T/C (second compound 0.00949 µM, first compound 0.00316 µM) was 82.3%, the viability, T/C (second compound 0.00949 µM, first compound 0.01 µM) was 65% and the viability, T/C (second compound 0.00949 µM, first compound 0.0316 µM) was 75.1%. For the same compound, the viability, T/C (second compound 0.00949 µM, first compound 0.1 µM) was 71%, the viability, T/C (second compound 0.00949 µM, first compound 0.316 µM) was 71.6% and the viability, T/C (second compound 0.00949 µM, first compound 1 µM) was 62.7%. It also gave a viability, T/C (second compound 0.03 µM, first compound 0.00316 µM) of 80.5%, a viability, T/C (second compound 0.03 µM, first compound 0.01 µM) of 73.2% and a viability, T/C (second compound 0.03 µM, first compound 0.0316 µM) of 78.7%. For the same compound, the viability, T/C (second compound 0.03 µM, first compound 0.1 µM) was 79%, the viability, T/C (second compound 0.03 µM, first compound 0.316 µM) was 64.5% and the viability, T/C (second compound 0.03 µM, first compound 1 µM) was 65%. The viability, T/C (second compound 0.0949 µM, first compound 0.00316 µM) was 67.2%, the viability, T/C (second compound 0.0949 µM, first compound 0.01 µM) was 72.7% and the viability, T/C (second compound 0.0949 µM, first compound 0.0316 µM) was 74%. It also gave a viability, T/C (second compound 0.0949 µM, first compound 0.1 µM) of 69.5%, a viability, T/C (second compound 0.0949 µM, first compound 0.316 µM) of 63.5% and a viability, T/C (second compound 0.0949 µM, first compound 1 µM) of 48.5%. The viability, T/C (second compound 0.3 µM, first compound 0.00316 µM) was 69.8%, the viability, T/C (second compound 0.3 µM, first compound 0.01 µM) was 67% and the viability, T/C (second compound 0.3 µM, first compound 0.0316 µM) was 71.2%. It also gave a viability, T/C (second compound 0.3 µM, first compound 0.1 µM) of 70.2%, a viability, T/C (second compound 0.3 µM, first compound 0.316 µM) of 58.7% and a viability, T/C (second compound 0.3 µM, first compound 1 µM) of 52.8%.

— PubChem BioAssay AID2060894 (Molecular Pharmacology Branch, DTP, NCI, 2025)
